Tests used:
IRE1 [1] = test: XBP1-EGFP reporter of IRE1 activation in COS-1 cells; assay type: cell-based, monkey; conditions: 10 ug/ml, after 8 and 16 hours
Excerpt: (§1) COS-1 monkey cells were transfected by either diethylaminoethyl (DEAE)-dextran (Kaufman, 1997) or Calcium Phosphate-BES methods (Ausubel et al, 1999). Chinese hamster ovary (CHO) cells were transfected by either lipofectAMINE PLUS (Life Technology) or FuGENE6 (Roche). Murine embryonic fibroblasts (MEFs) were transfected by either FuGENE6 (Roche) or Effectine (QIAGEN). IRE1 activation was monitored by immunoprecipitation and western analysis.
(§2) XBP1 splicing was also monitored by RT-PCR analysis of RNAs using primers designed to amplify the region encompassing the overlap between open reading frame 1 (ORF1) and ORF2 within XBP1 mRNA (see Lee et al., Genes and Dev. 2002). XBP1 splicing may also be monitored by assessing the expression of a reporter gene that is regulated by splicing of the XBP1 intron. The coding region of EGFP, Luciferase or β-galactosidase was fused to the mouse XBP1 ORF1 downstream of the XBP1 intron. Transcription of the construct is under control of the constitutively expressed CMV promoter. Therefore, expression of the XBP1-EGFP, XBP1-Luciferase or XBP1-β-galactosidase fusion protein is regulated by splicing of the XBP1 intron.
(§3) At 48 hours after transfection, cells were treated with 10 ug/ml tunicamycin to inhibit N-linked glycosylation. […] Therefore, this construct is instrumental in monitoring IRE1 activation.

BiP mRNA [2] = test: Northern blot analysis of BiP mRNA in CHO cells; assay type: cell-based, Chinese hamster; conditions: 2 μg/ml, 16 hours
Procedure: (§4) FIG. 17E depicts a Northern blot analysis of BiP and Xbp1 mRNA in S2P-deficient cells. Wild-type and S2P-deficient CHO cells were treated with or without 2 μg/ml tunicamycin for 16 hours prior to harvesting total RNA for Northern blot analysis using hamster BiP, XBP1-u and β-actin cDNA as probes.
(§5) Southern and Northern blot analysis followed standard procedures (Sambrook et al., 1989). [^32P]-labeled probes were prepared using a random prime labeling system (Amersham Pharmacia, Piscataway, N.J.). A 0.5-kb BamHI-XhoI fragment from the BS-mIRE1α targeting vector or a 3.6-kb EcoRI-XbaI fragment from pED-hIRE1α cDNA (Tirasophon et al., 2000) were used for Southern and Northern analysis, respectively. The probes for Northern analysis of mXbp1, BiP and GRP94 were a 0.94-kb XhoI fragment of pcDNA-mXbp1-u, the EcoRI-PstI fragment of hamster BiP (Ting et al., 1987), and a 146-bp PCR fragment of mouse GRP94 (from 142 to 287 of the coding region), respectively.

hsp-4 = hsp-4 expression upon ER stress (quantitative Taqman RT-PCR); assay type: in vivo, C. elegans; conditions: wild-type 1.5 day-old L2 larvae, 4 hours
Procedure: (§6) For Northern analysis, mixed-stage nematodes grown in liquid culture were treated with 3 mM of DTT (Calbiochem) for up to 8 hours. Heat-shock treatment was performed at 30° C. for 1 hour. For single worm analysis, individual L2 larvae grown on plates were treated with 2.5 mM of DTT or 28 μg/ml of tunicamycin (Calbiochem) for 4 hours. To study survival to tunicamycin, gravid adults were allowed to lay eggs on plates containing tunicamycin (0 to 7.5 μg/ml) for 4 hours and then removed from the plates. Eggs were counted and studied 3 days later.
(§7) Taqman RT-PCR was performed as described by Heid et al. (1996). The lack of DNA contamination in RNA preparations was confirmed by a 1000-fold decrease in quantitative PCR yield when reverse transcriptase was omitted. A unique sequence in the 3′UTR of act-1 and act-3 was amplified using Taqman PCR (primers act-F/act-R and act-probe). The primers (hsp-3-F/hsp-3-R) and the hsp-3-probe probe were used for detecting hsp-3 transcripts. The primers (hsp-4-F and hsp-4-R) and the hsp-4-probe probe were used for detecting hsp-4 transcripts. The relative expression of hsp-3 and hsp-4 was normalized to the average signals of act-1/act-3.

BiP mRNA [3] = test: Northern blot analysis of BiP mRNA in MEFs; assay type: cell-based, mouse; conditions: tunicamycin for 6 hr
Procedure: (§8) FIGS. 12E and 12F depict a Northern blot analysis of wild-type and IRE1α-null MEFs. One blot was probed with [α-^32P]-labeled hamster BiP cDNA and β-actin cDNA (E) and another blot was probed with [α-^32P]-labeled mouse GRP94 DNA and β-actin cDNA (F).
as §5

hsp-3 = hsp-3 expression upon ER stress (Northern blot, quantitative Taqman RT-PCR); assay type: in vivo, C. elegans; conditions: wild-type 1.5 day-old L2 larvae, 4 hours
Procedure: as §6
Total RNA preparation and Northern blot analysis was performed as described (Chen et al., 2000). The blot was hybridized sequentially with digoxigenin (DIG)-labeled DNA probes for hsp-3 and for 26S rRNA prepared with DIG-high prime labeling Kit (Roche).
as §7, with “The relative expression of hsp-3 and hsp-4 was normalized to the average signals of act-1/act-3.” left out

GRP94 mRNA = test: Northern blot analysis of GRP94 mRNA in MEFs; assay type: cell-based, mouse; conditions: 10 μg/ml, 6 hr
Procedure: as §8, §5

IRE1 [4] = test: XBP1-EGFP reporter of IRE1 activation in murine embryonic fibroblast cells; assay type: cell-based
Excerpt: as §1, §2, §3

Xbp1 mRNA [5] = test: Northern blot analysis of Xbp1 mRNA in CHO cells; assay type: cell-based, Chinese hamster; conditions: 2 μg/ml, 16 hours
Procedure: as §4, §5

C. elegans = test: survival to tunicamycin (eggs laid on plates, studied after 3 days); assay type: in vivo; conditions: for animals arrested at or prior to the L3 stage / animals matured to the L4 stage or older / dead animals: after 3 days
Excerpt: Eggs from each strain were laid on plates containing different concentrations of tunicamycin, counted, and studied after 3 days. The number of eggs studied is listed above each column. The X-axis represents tunicamycin concentration. The total worm population was grouped into three fractions: animals that matured to L4 or older, animals that arrested at or prior to the L3 stage, and dead animals. Each fraction was plotted as the percentage of total eggs laid (Y-axis).
as §6

Xbp1 mRNA [6] = test: Northern blot analysis of Xbp1 mRNA in MEFs; assay type: cell-based, mouse; conditions: 10 μg/ml, 6 hr
Procedure: FIG. 15F depicts a Northern blot analysis of Xbp1 mRNA in IRE1α-null MEFs. Wild-type and IRE1α-null MEFs were treated with or without 10 μg/ml tunicamycin for 6 hr prior to harvesting total RNA for Northern blot analysis. The blots were probed with [α-^32P]-labeled 0.94-kb XhoI fragment of XBP1-u and [β-actin cDNA.
as §5

tunicamycin
fluorescence of cells transfected with the XBP1-EGFP construct (IRE1 [1]): bright fluoresence
BiP mRNA induction (BiP mRNA [2]; S2P-deficient CHO cells): 2.6 fold
BiP mRNA induction (BiP mRNA [2]; wild-type CHO cells): 34 fold
hsp-4 induction (hsp-4; tunicamycin 28 μg/ml): 29 fold
reduction of BiP mRNA induction in IRE1α-null MEFs compared with wild-type (BiP mRNA [3]): 10%
hsp-3 induction (hsp-3; tunicamycin 28 μg/ml): ~3.9 fold
GRP94 mRNA induction (GRP94 mRNA; IRE1α-null MEFs): 5.4 fold
GRP94 mRNA induction (GRP94 mRNA; wild-type MEFs): 6.7 fold
fluorescence of cells expressing the XBP1-EGFP construct (IRE1 [4]; control murine embryonic fibroblast cells): intense fluorescsence
fluorescence of cells expressing the XBP1-EGFP construct (IRE1 [4]; murine embryonic fibroblast cells deleted in both IRE1α alleles): no fluorescence was detected
Xbp1 mRNA induction (Xbp1 mRNA [5]; S2P-deficient CHO cells): 2.9 fold
Xbp1 mRNA induction (Xbp1 mRNA [5]; wild-type CHO cells): 3.1 fold
animals arrested at or prior to the L3 stage (C. elegans; IRE1(v33) mutants, 2 μg/ml): 60%
animals matured to the L4 stage or older (C. elegans; IRE1(v33) mutants, 2 μg/ml): 9%
dead animals (C. elegans; IRE1(v33) mutants, 2 μg/ml): 31%
animals arrested at or prior to the L3 stage (C. elegans; N2, 5 μg/ml): 29%
animals matured to the L4 stage or older (C. elegans; N2, 5 μg/ml): 8%
dead animals (C. elegans; N2, 5 μg/ml): 63%
concentration at which growth of N2 animals was affected (C. elegans; N2, plates with 0 to 7.5 μg/ml): ≥ 5 µg/mL
animals arrested at or prior to the L3 stage (C. elegans; PEK1(ok275) mutants, 2 μg/ml): 31%
animals matured to the L4 stage or older (C. elegans; PEK1(ok275) mutants, 2 μg/ml): 35%
dead animals (C. elegans; PEK1(ok275) mutants, 2 μg/ml): 34%
Xbp1 mRNA induction (Xbp1 mRNA [6]; IRE1α-null MEFs): 4.0 fold
Xbp1 mRNA induction (Xbp1 mRNA [6]; wild-type MEFs): 3.1 fold

O[C@H](CS)[C@H](O)CS (racemic) [DTT, dithiothreitol]
hsp-4 induction (hsp-4; DTT 2.5 mM): 61 fold
hsp-3 induction (hsp-3; DTT 2.5 mM): ~9.3 fold
